What all share (format): in vivo
In test [1] the test system is Diamond Back Moth (Plutella xylostella). The experiment in a line: Insecticidal effect on diamond back moth (Test Example 1): egg-bearing Chinese cabbage seedling immersed in 50 ppm liquid chemical. As to the method: Adult diamond back moths were released and allowed to oviposit on a Chinese cabbage seedling. Two days after the release, the seedling having the eggs deposited thereon was immersed for about 30 seconds in a liquid chemical prepared by diluting a preparation containing each compound listed in Table 1 or 2 as an active ingredient to adjust the concentration to 50 ppm. After air-dryness, it was allowed to stand in a room thermostated at 25° C. Six days after the immersion, the hatched insects were counted. The mortality was calculated according to the following equation and the insecticidal effect was judged according to the criterion shown below. The test was carried out with triplicate groups of 10 insects. [formula]

In test [2] the test system is Common Cutworm (Spodoptera litura). The experiment in a line: Insecticidal effect on common cutworm (Test Example 2): cabbage leaf piece immersed in 50 ppm liquid chemical. Conditions: common cutworm (Spodoptera litura) second-instar larvae, 8 days after inoculation, 25° C. As to the method:
A piece of cabbage leaf (cultivar: Shikidori) was immersed for about 30 seconds in a liquid chemical prepared by diluting a preparation containing each compound listed in Table 1 or 2 as an active ingredient to adjust the concentration to 50 ppm. After air-dryness, it was placed in a plastic Petri dish with a diameter of 9 cm and inoculated with second-instar larvae of common cutworm, after which the dish was closed and then allowed to stand in a room thermostated at 25° C. Eight days after the inoculation, the dead and alive were counted. The mortality was calculated according to the following equation and the insecticidal effect was judged according to the criterion shown in Test Example 1. The test was carried out with triplicate groups of 10 insects. [formula]

The test system of test [3] is Smaller Tea Tortrix (Adoxophyes sp.). The experiment in a line: Insecticidal effect on smaller tea tortrix (Test Example 3): tea leaves immersed in 50 ppm liquid chemical. To be noted: smaller tea tortrix (Adoxophyes sp.) larvae, 8 days after inoculation, 25° C., humidity 70%. On the procedure: Tea leaves were immersed for about 30 seconds in a liquid chemical prepared by diluting a preparation containing each compound listed in Table 1 or 2 as an active ingredient to adjust the concentration to 50 ppm. After air-dryness, the tea leaves were placed in a plastic Petri dish with a diameter of 9 cm and inoculated with larvae of smaller tea tortrix, after which the dish was allowed to stand in a room thermostated at 25° C. and having a humidity of 70%. Eight days after the inoculation, the dead and alive were counted and the insecticidal effect was judged according to the criterion shown in Test Example 1. The test was carried out with triplicate groups of 10 insects.

Take `Cc1cc(C(F)(C(F)(F)F)C(F)(F)F)ccc1NC(=O)c1cccc(I)c1C(=O)NC(C)CS(=O)(=O)NCc1ccc(SC(F)(F)F)cc1` (stereo not drawn) [1-38]: in test [1], the “Insecticidal effect (mortality grade), Test Example 1” value (from here on “Insecticidal effect … Test Example 1”) is on record as “A (Mortality 100%)”. Also, the “Insecticidal effect (mortality grade), Test Example 2” value (“Insecticidal effect … Test Example 2” for short) in test [2] is recorded as “A (Mortality 100%)”. Further, the “Insecticidal effect (mortality grade), Test Example 3” value (“Insecticidal effect … Test Example 3” for short) in test [3] was “A (Mortality 100%)”.

As to `Cc1cc(C(F)(C(F)(F)F)C(F)(F)F)ccc1NC(=O)c1cccc(I)c1C(=O)NC(C)CS(=O)(=O)NCc1ccccn1` (stereo not drawn) [1-39], the “Insecticidal effect … Test Example 1” value in test [1] is listed as “A (Mortality 100%)”. Besides, the “Insecticidal effect … Test Example 2” value in test [2] is on record as “A (Mortality 100%)”. Also, in test [3], the “Insecticidal effect … Test Example 3” value was “A (Mortality 100%)”.

`Cc1cc(C(F)(C(F)(F)F)C(F)(F)F)ccc1NC(=O)c1cccc(I)c1C(=O)NC(C)CS(=O)(=O)NCc1cccnc1` (stereo not drawn) [1-40]: the “Insecticidal effect … Test Example 1” value in test [1] is listed as “A (Mortality 100%)”. In test [2], the “Insecticidal effect … Test Example 2” value is “A (Mortality 100%)”. The “Insecticidal effect … Test Example 3” value in test [3] is reported as “A (Mortality 100%)”.

On to `Cc1cc(C(F)(C(F)(F)F)C(F)(F)F)ccc1NC(=O)c1cccc(I)c1C(=O)NC(C)CS(=O)(=O)NCc1ccncc1` (stereo not drawn) [1-41], for which the “Insecticidal effect … Test Example 1” value in test [1] is “A (Mortality 100%)”. Besides, the “Insecticidal effect … Test Example 2” value in test [2] was “A (Mortality 100%)”. For the same compound, in test [3], the “Insecticidal effect … Test Example 3” value is recorded as “A (Mortality 100%)”.

`Cc1cc(C(F)(C(F)(F)F)C(F)(F)F)ccc1NC(=O)c1cccc(I)c1C(=O)NC(C)CS(=O)(=O)N(C)Cc1ccccc1` (stereo not drawn) [1-42]: the “Insecticidal effect … Test Example 1” value in test [1] was “A (Mortality 100%)”. Also, the “Insecticidal effect … Test Example 2” value in test [2] is “A (Mortality 100%)”. Moreover, the “Insecticidal effect … Test Example 3” value in test [3] is recorded as “A (Mortality 100%)”.

On to `CCN(Cc1ccccc1)S(=O)(=O)CC(C)NC(=O)c1c(I)cccc1C(=O)Nc1ccc(C(F)(C(F)(F)F)C(F)(F)F)cc1C` (stereo not drawn) [1-43], for which the “Insecticidal effect … Test Example 1” value in test [1] was “A (Mortality 100%)”. Besides, the “Insecticidal effect … Test Example 2” value in test [2] was “A (Mortality 100%)”. For the same compound, the “Insecticidal effect … Test Example 3” value in test [3] is on record as “A (Mortality 100%)”.

In the case of `Cc1cc(C(F)(C(F)(F)F)C(F)(F)F)ccc1NC(=O)c1cccc(I)c1C(=O)NC(C)CS(=O)(=O)NC(C)c1ccccc1` (stereo not drawn) [1-44], the “Insecticidal effect … Test Example 1” value in test [1] is given as “A (Mortality 100%)”. Moreover, the “Insecticidal effect … Test Example 2” value in test [2] is listed as “A (Mortality 100%)”. Further, in test [3], the “Insecticidal effect … Test Example 3” value is recorded as “A (Mortality 100%)”.

As for `Cc1cc(C(F)(C(F)(F)F)C(F)(F)F)ccc1NC(=O)c1cccc(I)c1C(=O)NC(C)CS(=O)(=O)N[C@H](C)c1ccccc1` (stereo partly drawn) [1-45], in test [1], the “Insecticidal effect … Test Example 1” value is given as “A (Mortality 100%)”. Moreover, the “Insecticidal effect … Test Example 2” value in test [2] is on record as “A (Mortality 100%)”. The “Insecticidal effect … Test Example 3” value in test [3] is on record as “A (Mortality 100%)”.

On to `Cc1cc(C(F)(C(F)(F)F)C(F)(F)F)ccc1NC(=O)c1cccc(I)c1C(=O)NC(C)CS(=O)(=O)N[C@@H](C)c1ccccc1` (stereo partly drawn) [1-46], for which, in test [1], the “Insecticidal effect … Test Example 1” value is recorded as “A (Mortality 100%)”. Further, the “Insecticidal effect … Test Example 2” value in test [2] was “A (Mortality 100%)”. Also, the “Insecticidal effect … Test Example 3” value in test [3] is given as “A (Mortality 100%)”.

Regarding `Cc1cc(C(F)(C(F)(F)F)C(F)(F)F)ccc1NC(=O)c1cccc(I)c1C(=O)NC(C)CS(=O)(=O)NCCc1ccccc1` (stereo not drawn) [1-47], in test [1], the “Insecticidal effect … Test Example 1” value is listed as “A (Mortality 100%)”. The “Insecticidal effect … Test Example 2” value in test [2] is “A (Mortality 100%)”. In addition, the “Insecticidal effect … Test Example 3” value in test [3] is given as “A (Mortality 100%)”.

As to `Cc1cc(C(F)(C(F)(F)F)C(F)(F)F)ccc1NC(=O)c1cccc(I)c1C(=O)NC(C)CS(=O)(=O)NC(C)(C)Cc1ccccc1` (stereo not drawn) [1-48], in test [1], the “Insecticidal effect … Test Example 1” value is given as “A (Mortality 100%)”. Besides, the “Insecticidal effect … Test Example 2” value in test [2] is “C (Mortality 89–80%)”. For the same compound, the “Insecticidal effect … Test Example 3” value in test [3] is listed as “A (Mortality 100%)”.

As to `Cc1cc(C(F)(C(F)(F)F)C(F)(F)F)ccc1NC(=O)c1cccc(I)c1C(=O)NC(C)CS(=O)(=O)N1CCOCC1` (stereo not drawn) [1-54], in test [1], the “Insecticidal effect … Test Example 1” value was “A (Mortality 100%)”. The “Insecticidal effect … Test Example 2” value in test [2] was “A (Mortality 100%)”. Moreover, the “Insecticidal effect … Test Example 3” value in test [3] is “A (Mortality 100%)”.

For `Cc1cc(C(F)(C(F)(F)F)C(F)(F)F)ccc1NC(=O)c1cccc(I)c1C(=O)NC(C)CS(=O)(=O)N1CCSCC1` (stereo not drawn) [1-55], the “Insecticidal effect … Test Example 1” value in test [1] is given as “A (Mortality 100%)”. Further, the “Insecticidal effect … Test Example 2” value in test [2] is recorded as “A (Mortality 100%)”. Also, the “Insecticidal effect … Test Example 3” value in test [3] was “A (Mortality 100%)”.

In the case of `Cc1cc(C(F)(C(F)(F)F)C(F)(F)F)ccc1NC(=O)c1cccc(I)c1C(=O)NC(C)CS(=O)(=O)N1CC[S+]([O-])CC1` (stereo not drawn) [1-56], the “Insecticidal effect … Test Example 1” value in test [1] was “A (Mortality 100%)”. Moreover, the “Insecticidal effect … Test Example 2” value in test [2] was “A (Mortality 100%)”. Also, in test [3], the “Insecticidal effect … Test Example 3” value is listed as “A (Mortality 100%)”.

In the case of `Cc1cc(C(F)(C(F)(F)F)C(F)(F)F)ccc1NC(=O)c1cccc(I)c1C(=O)NC(C)CS(=O)(=O)N1CCS(=O)(=O)CC1` (stereo not drawn) [1-57], the “Insecticidal effect … Test Example 1” value in test [1] is “A (Mortality 100%)”. For the same compound, in test [2], the “Insecticidal effect … Test Example 2” value is given as “A (Mortality 100%)”. Besides, the “Insecticidal effect … Test Example 3” value in test [3] is “A (Mortality 100%)”.

Take `Cc1cc(C(F)(C(F)(F)F)C(F)(F)F)ccc1NC(=O)c1cccc(I)c1C(=O)NC(C)(C)CS(=O)(=O)N1CCSCC1` [1-58]: the “Insecticidal effect … Test Example 1” value in test [1] is reported as “A (Mortality 100%)”. For the same compound, in test [2], the “Insecticidal effect … Test Example 2” value is “A (Mortality 100%)”. Moreover, the “Insecticidal effect … Test Example 3” value in test [3] is reported as “E (Mortality less than 50%)”.

On to `Cc1cc(C(F)(C(F)(F)F)C(F)(F)F)ccc1NC(=O)c1cccc(I)c1C(=O)NC(C)(C)CS(=O)(=O)N1CC[S+]([O-])CC1` [1-59], for which the “Insecticidal effect … Test Example 1” value in test [1] is recorded as “A (Mortality 100%)”. The “Insecticidal effect … Test Example 2” value in test [2] is listed as “A (Mortality 100%)”. In test [3], the “Insecticidal effect … Test Example 3” value is given as “E (Mortality less than 50%)”.

With `Cc1cc(C(F)(C(F)(F)F)C(F)(F)F)ccc1NC(=O)c1cccc(I)c1C(=O)NC(C)(C)CS(=O)(=O)N1CCS(=O)(=O)CC1` [1-60], in test [1], the “Insecticidal effect … Test Example 1” value is “A (Mortality 100%)”. Besides, the “Insecticidal effect … Test Example 2” value in test [2] is recorded as “A (Mortality 100%)”. Further, the “Insecticidal effect … Test Example 3” value in test [3] is “E (Mortality less than 50%)”.

For the compound `Cc1cc(C(F)(C(F)(F)F)C(F)(F)F)ccc1NC(=O)c1cccc(I)c1C(=O)NC(C)(C)CS(=O)(=O)N1CCSCC1C` (stereo not drawn) [1-61], the “Insecticidal effect … Test Example 1” value in test [1] was “A (Mortality 100%)”. For the same compound, the “Insecticidal effect … Test Example 2” value in test [2] was “A (Mortality 100%)”. In addition, in test [3], the “Insecticidal effect … Test Example 3” value is reported as “A (Mortality 100%)”.

As for `Cc1cc(C(F)(C(F)(F)F)C(F)(F)F)ccc1NC(=O)c1cccc(I)c1C(=O)NC(C)(C)CS(=O)(=O)N1CC[S+]([O-])CC1C` (stereo not drawn) [1-62], in test [1], the “Insecticidal effect … Test Example 1” value is listed as “A (Mortality 100%)”. The “Insecticidal effect … Test Example 2” value in test [2] was “A (Mortality 100%)”. The “Insecticidal effect … Test Example 3” value in test [3] is “A (Mortality 100%)”.

Values taken from US7161032B2, “Sulfonamide derivatives, insecticides for agricultural and horticultural use, and usage thereof” (Nihon Nohyaku Co., Ltd., priority 2002, dated 2007).
